Source: the CheMixHub drug solubility set

Experiment: xn = mol fraction of the nth substance listed, in the solute-free solvent

Cl.N=C(N)N + CO + CCCO
solubility (g/100 g solution)
Conditions | 278.15 K | 283.15 K | 288.15 K | 293.15 K | 298.15 K | 303.15 K | 308.15 K | 313.15 K | 318.15 K | 323.15 K
x2 = 0.1726 | 9.26 | 10.3 | 11.5 | 12.6 | 13.3 | 14.4 | 15.6 | 17 | 18.2 | 19.9
x2 = 0.4458 | 15.1 | 16.1 | 17.4 | 18.8 | 20.6 | 22 | 23.4 | 25.3 | 26.3 | 28.2
x2 = 0.6523 | 22.2 | 23.4 | 24.9 | 26.3 | 27.8 | 29.2 | 30.7 | 32.4 | 34.1 | 35.6
x2 = 0.8138 | 28.3 | 29.7 | 31.4 | 33.1 | 34.5 | 36.2 | 37.6 | 39.5 | 40.9 | 42.3
x2 = 0.9441 | 33.4 | 35.1 | 36.8 | 38.3 | 40.2 | 42.1 | 43.6 | 45.5 | 47.1 | 48.8

CN1CCN(C2=Nc3cc(Cl)ccc3Nc3ccccc32)CC1 + Cc1ccccc1 + CC(C)=O
323.15 K
Conditions | solubility (g/100 g solution)
x2 = 0.06574 | 13.6
x2 = 0.1358 | 15.9
x2 = 0.2124 | 17.4
x2 = 0.2962 | 17
x2 = 0.3864 | 17
x2 = 0.4859 | 16
x2 = 0.5953 | 14.7
x2 = 0.7159 | 12.9
x2 = 0.8497 | 10.3

CC(CCc1ccccc1)NCC(O)c1ccc(O)c(C(N)=O)c1.Cl (stereo not given) + CO + CC#N
solubility (g/100 g solution)
Conditions | 288.15 K | 293.15 K | 298.15 K | 303.15 K | 308.15 K | 313.15 K | 318.15 K | 323.15 K | 328.15 K
x2 = 0.2426 | 0.0461 | 0.0674 | 0.0984 | 0.137 | 0.19 | 0.268 | 0.388 | 0.533 | 0.751
x2 = 0.3544 | 0.126 | 0.167 | 0.222 | 0.282 | 0.389 | 0.49 | 0.639 | 0.847 | 1.1
x2 = 0.4606 | 0.172 | 0.234 | 0.323 | 0.436 | 0.58 | 0.766 | 1.03 | 1.38 | 1.81
x2 = 0.5616 | 0.411 | 0.533 | 0.674 | 0.884 | 1.1 | 1.4 | 1.74 | 2.17 | 2.71
x2 = 0.6577 | 0.787 | 0.998 | 1.23 | 1.54 | 1.92 | 2.35 | 2.89 | 3.46 | 4.2
x2 = 0.7493 | 1.73 | 2.02 | 2.44 | 2.83 | 3.37 | 3.94 | 4.42 | 5.29 | 6.03
x2 = 0.8367 | 2.23 | 2.77 | 3.37 | 4.11 | 5.04 | 6.01 | 7.18 | 8.54 | 10.1
x2 = 0.9202 | 4.34 | 5.22 | 6.18 | 7.32 | 8.68 | 10.1 | 11.7 | 13.5 | 15.6

CC(C)=CCCC(C)C1CCC2(C)C3=C(CCC12C)C1(C)CCC(O)C(C)(C)C1CC3 (stereo not given) + CO + O
solubility (g/100 g solution)
Conditions | 296.67 K | 306.81 K | 316.94 K | 328.97 K | 338.78 K
x2 = 0.0229 | 8.14e-06 | 1.37e-05 | 3.09e-05 | 6.98e-05 | 0.000153
x2 = 0.09675 | 8.15e-06 | 1.39e-05 | 3.32e-05 | 8.15e-05 | 0.000161
x2 = 0.3065 | 7.26e-06 | 1.51e-05 | 3.94e-05 | 8.99e-05 | 0.000193
x2 = 0.5109 | 0.00011 | 0.000197 | 0.000378 | 0.000796 | 0.00195
x2 = 0.8048 | 0.0189 | 0.0422 | 0.0785 | 0.161 | –

O=C(O)CC(O)C(=O)O (stereo not given) + C1CCOC1 + CC#N
solubility (g/100 g solution)
Conditions | 278.15 K | 283.15 K | 288.15 K | 293.15 K | 298.15 K | 303.15 K | 308.15 K | 313.15 K | 318.15 K | 323.15 K
x2 = 0.1246 | 19.5 | 21.2 | 23.2 | 25.3 | 26.9 | 29.2 | 31.6 | 34.1 | 36.6 | 39.6
x2 = 0.1961 | 27.1 | 28.6 | 30.5 | 32.5 | 34.7 | 37.1 | 39.2 | 41.7 | 44.3 | 47
x2 = 0.2751 | 29.8 | 32 | 34 | 36 | 38 | 40.2 | 42.3 | 45 | 47.2 | 49.9
x2 = 0.3628 | 33.2 | 34.9 | 36.9 | 38.9 | 40.9 | 43 | 45.1 | 47.7 | 49.9 | 52.5
x2 = 0.4606 | 34.6 | 36 | 37.8 | 39.7 | 41.5 | 43.5 | 45.9 | 48.1 | 50.5 | 53.4
x2 = 0.5705 | 35.7 | 37.3 | 39.1 | 41.1 | 43.2 | 45.5 | 47.8 | 50.2 | 52.9 | 55.6
x2 = 0.6949 | 37.8 | 39 | 40.6 | 42.3 | 44.3 | 46 | 48.3 | 50.3 | 52.7 | 55.5

CCC(C)n1ncn(-c2ccc(N3CCN(c4ccc(OCC5COC(Cn6cncn6)(c6ccc(Cl)cc6Cl)O5)cc4)CC3)cc2)c1=O (stereo not given) + ClCCl + CCO
solubility (g/100 g solution)
Conditions | x2 = 0.05744 | x2 = 0.1206 | x2 = 0.1903 | x2 = 0.2677 | x2 = 0.3542 | x2 = 0.4513 | x2 = 0.5613 | x2 = 0.6869 | x2 = 0.8315
288.15 K | 0.0488 | 0.124 | 0.37 | 1.04 | 2.95 | 7.26 | 15.2 | 21.3 | 25.9
293.15 K | 0.0616 | 0.163 | 0.436 | 1.35 | 3.51 | 8.44 | 16.3 | 22.6 | 27
298.15 K | 0.0776 | 0.215 | 0.511 | 1.72 | 4.09 | 9.83 | 17.6 | 24 | 28.2
303.15 K | 0.0979 | 0.279 | 0.598 | 2.16 | 4.81 | 11.3 | 18.8 | 25.4 | 29.3
308.15 K | 0.122 | 0.362 | 0.694 | 2.7 | 5.58 | 13 | 20.1 | 26.7 | 30.5

CC(N)C(=O)O (stereo not given) + O + CO
solubility (g/100 g solution)
Conditions | x2 = 0.1 | x2 = 0.2 | x2 = 0.3 | x2 = 0.4 | x2 = 0.5 | x2 = 0.6 | x2 = 0.7 | x2 = 0.8 | x2 = 0.9
283.15 K | 0.123 | 0.167 | 0.315 | 0.44 | 0.705 | 1.21 | 1.99 | 3.46 | 6.52
293.15 K | 0.142 | 0.222 | 0.377 | 0.571 | 0.899 | 1.53 | 2.53 | 4.26 | 7.7
303.15 K | 0.159 | 0.281 | 0.434 | 0.667 | 1.11 | 1.88 | 3.07 | 5.17 | 8.92
313.15 K | 0.178 | 0.331 | 0.492 | 0.816 | 1.39 | 2.35 | 3.85 | 6.26 | 10.4
323.15 K | 0.193 | 0.424 | 0.627 | 1.03 | 1.77 | 2.95 | 4.69 | 7.21 | 11.9

O=c1ccc(-c2ccccc2)n[nH]1 + CS(C)=O + O
solubility (g/100 g solution)
Conditions | x2 = 0.02501 | x2 = 0.05457 | x2 = 0.09003 | x2 = 0.1334 | x2 = 0.1876 | x2 = 0.2572 | x2 = 0.3501 | x2 = 0.4801 | x2 = 0.6751
298.15 K | 0.016 | 0.0442 | 0.124 | 0.333 | 0.899 | 2.36 | 6.21 | 14.3 | 30.9
303.15 K | 0.0188 | 0.051 | 0.14 | 0.376 | 1.01 | 2.59 | 6.53 | 15.1 | 32.4
308.15 K | 0.0223 | 0.0609 | 0.166 | 0.428 | 1.12 | 2.85 | 7.05 | 16.1 | 33.6
313.15 K | 0.0267 | 0.0709 | 0.188 | 0.487 | 1.26 | 3.14 | 7.63 | 17.1 | 35.2
318.15 K | 0.0334 | 0.0872 | 0.224 | 0.571 | 1.45 | 3.54 | 8.41 | 18.3 | 36.8
